Columns and labels:
CHOP = type: cell-based, murine
BiP = type: cell-based, African green monkey
bovine BiP = bovine BiP (Bos taurus, UniProt Q0VCX2); type: biochemical
GRP78/BiP = GRP78/BiP (Homo sapiens, UniProt P11021); type: cell-based
Chain of GRP78/BiP (P11021 19-654): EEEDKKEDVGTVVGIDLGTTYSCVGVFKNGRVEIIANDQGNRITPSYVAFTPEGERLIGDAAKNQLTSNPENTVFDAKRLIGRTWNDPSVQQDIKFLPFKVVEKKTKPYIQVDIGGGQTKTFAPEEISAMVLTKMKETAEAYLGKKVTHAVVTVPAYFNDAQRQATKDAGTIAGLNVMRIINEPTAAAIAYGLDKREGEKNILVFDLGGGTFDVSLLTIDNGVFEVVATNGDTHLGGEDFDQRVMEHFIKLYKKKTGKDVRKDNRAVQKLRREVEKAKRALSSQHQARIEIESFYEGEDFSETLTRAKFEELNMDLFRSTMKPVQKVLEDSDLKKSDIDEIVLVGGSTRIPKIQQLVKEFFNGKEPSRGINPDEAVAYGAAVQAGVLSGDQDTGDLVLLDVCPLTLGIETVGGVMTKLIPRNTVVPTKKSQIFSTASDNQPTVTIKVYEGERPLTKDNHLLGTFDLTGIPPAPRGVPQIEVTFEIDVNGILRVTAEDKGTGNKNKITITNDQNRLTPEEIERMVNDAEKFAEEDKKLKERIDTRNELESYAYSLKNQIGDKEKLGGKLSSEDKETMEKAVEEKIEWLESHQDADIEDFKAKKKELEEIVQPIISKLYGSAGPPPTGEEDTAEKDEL

For tunicamycin, the “CHOP induction in N2A cells” value (CHOP) was “evident”.
In the case of C[C@H]1CCC/C=C/[C@@H]2C[C@H](O)C[C@H]2[C@H](O)/C=C/C(=O)O1 [brefeldin A], the “effect on SubAB cleavage of 72-kDa BiP” value (BiP) is reported as “completely blocked”.
In the case of “SubB: B subunit of subtilase cytotoxin, 13 kDa, binds target cells and transports SubA intracellularly”, the “cleavage of purified bovine BiP” value (bovine BiP) is reported as “not cleaved”.
For C/C=C(/C)C(=O)O[C@H]1C(C)=C2[C@H]([C@@H]1OC(=O)CCCCCCC)[C@@](C)(OC(C)=O)C[C@H](OC(=O)CCC)[C@@]1(O)[C@H]2OC(=O)[C@@]1(C)O [thapsigargin, reference compound], the “expression of BiP” value (GRP78/BiP) was “enhanced expression of BiP” and the “CHOP induction in N2A cells” value (CHOP) was “evident”.

— patent US20100104550A1 (priority 2006, published 2010)
